Measurements as given in PMC10258805, “Nonpeptidic Oxazole-Based Prolyl Oligopeptidase Ligands with Disease-Modifying Effects on α-Synuclein Mouse Models of Parkinson’s Disease” (Journal of Medicinal Chemistry, 2023).
Where two headings read alike, the source gives them in different places. Where a SMILES comes first, the peptide text is derived from it. The star is where a group is joined. Cbz = O=C(OCc1ccccc1)*

How the values were obtained:
[1] = tested on: αSyn dimerization in Neuro2A (N2A) cells; assay: αSyn-dimerization assay (split Gaussia luciferase PCA); conditions: for effect on αSyn dimerization (in words): 10 μM, N2A cells; for activity at 10 µM: Mus musculus, N2a
[2] = tested on: HEK-293 cells stably expressing GFP-LC3B; assay: Autophagic flux (GFP-LC3B reporter cells)
recombinant porcine PREP = target: T1, recombinant porcine PREP (Sus scrofa, UniProt P23687); assay: PREP activity assay (inhibition of proteolytic activity); assay type: biochemical
T1 construct: made in house
T1 sequence (P23687 whole entry): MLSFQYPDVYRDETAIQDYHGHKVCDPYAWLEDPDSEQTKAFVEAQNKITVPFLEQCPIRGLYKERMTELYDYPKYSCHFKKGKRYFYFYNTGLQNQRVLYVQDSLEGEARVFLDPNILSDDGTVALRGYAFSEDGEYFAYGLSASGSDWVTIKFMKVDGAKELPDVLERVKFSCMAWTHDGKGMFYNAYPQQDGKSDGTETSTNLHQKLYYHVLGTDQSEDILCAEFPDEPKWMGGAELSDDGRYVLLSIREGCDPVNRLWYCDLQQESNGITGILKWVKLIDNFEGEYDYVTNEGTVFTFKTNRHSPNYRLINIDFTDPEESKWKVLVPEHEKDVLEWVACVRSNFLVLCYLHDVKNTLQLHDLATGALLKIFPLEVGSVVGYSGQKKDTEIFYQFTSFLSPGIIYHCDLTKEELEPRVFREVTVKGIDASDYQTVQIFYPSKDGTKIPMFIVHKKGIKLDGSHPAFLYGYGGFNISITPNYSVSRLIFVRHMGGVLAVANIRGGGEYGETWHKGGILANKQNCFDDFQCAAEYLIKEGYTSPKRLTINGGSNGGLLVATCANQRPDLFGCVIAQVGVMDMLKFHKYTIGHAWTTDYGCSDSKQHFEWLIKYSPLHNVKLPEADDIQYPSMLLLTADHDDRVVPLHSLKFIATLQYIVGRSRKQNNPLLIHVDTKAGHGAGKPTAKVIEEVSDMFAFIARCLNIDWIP

[3] = tested on: ROS production in SH-SY5Y cells; assay: ROS detection assay under oxidative stress; conditions: Homo sapiens, 3 h
[4] = Suc-Gly-Pro-AMC as substrate, 95% CI in brackets, read-out: IC50 (nM) (95% CI)
[5] = Homo sapiens, HEK293, 24 h, read-out: Autophagy at 10 uM (%)
[6] = Homo sapiens, HEK293, 24 h, read-out: autophagy at 10 μM (%)
[7] = read-out: aSyn dimerization at 10 uM (%)
[8] = read-out: αSyn dimer. at 10 μM (%)
[9] = read-out: luminescence signal compared to the DMSO control (αSyn dimerization)
[10] = supplementary CSV, read-out: IC50
[11] = Homo sapiens, HEK293, 24 h, read-out: GFP signal of the DMSO control (autophagic flux)
[12] = read-out: ROS production, % of the control

SMILES | effect on αSyn dimerization (in words) [1] | GFP signal compared to the DMSO control (in words) ([2]; 20 nM, autophagy inhibitor control) | IC50 (recombinant porcine PREP; [4]) [nM] | activity at 10 µM [2, 5] [%] | activity at 10 µM [2, 6] [%] | activity at 10 µM ([3]; read-out: ROS at 10 uM (%)) [%] | activity at 10 µM ([3]; read-out: ROS at 10 μM (%)) [%] | activity at 10 µM [1, 7] [%] | activity at 10 µM [1, 8] [%] | inhibitory activity (in words) (recombinant porcine PREP) | activity at 10 µM [1, 9] [%] | IC50 (recombinant porcine PREP; [10]) [nM] | activity at 10 µM [2, 11] [%] | IC50 (recombinant porcine PREP; read-out: IC50 value) [nM] | activity at 10 µM [3, 12] [%] | activity at 0.5 µM [2, 11] [%]
CC(C)C[C@@H](C=O)NC(=O)[C@H](CC(C)C)NC(=O)[C@H](CC(C)C)NC(=O)OCc1ccccc1 [MG-132, reference compound] (Cbz-Leu-Leu-Leu-aldehyde) | significantly increased αSyn dimerization | – | – | – | – | – | – | – | – | – | – | – | – | – | – | –
CO/C1=C\C(C)=C\[C@@H](C)[C@@H](O)[C@@H](C)C/C(C)=C/C=C/[C@H](OC)[C@@H]([C@@H](C)[C@@H](O)[C@H](C)[C@@]2(O)C[C@@H](O)[C@H](C)[C@@H](C(C)C)O2)OC1=O [bafilomycin A1, Bafilomycin A1, reference compound] | – | significant effect | – | – | – | – | – | – | – | – | – | – | – | – | – | –
C[C@H](NC(=O)CCCc1ccccc1)C(=O)N1CCC[C@H]1C#N [compound 2, reference compound] | – | – | 3.3 | 86 | 86 ± 6 | 92 | 92 ± 7 | 105 | 105 ± 14 | – | – | – | – | – | – | –
Cc1nc(CCCc2ccccc2)oc1N1CCC[C@@H]1C#N [compound 3, (R)-1-(4-Methyl-2-(3-phenylpropyl)oxazol-5-yl)pyrrolidine-2-carbonitrile] | – | – | – | – | – | 88 | 88 ± 5 | 94 | 94 ± 8 | – | – | – | – | – | – | –
Cc1nc(CCCc2ccccc2)oc1N1CCCC[C@H]1C#N [compound 4, (S)-1-(4-Methyl-2-(3-phenylpropyl)oxazol-5-yl)piperidine-2-carbonitrile] | – | – | > 1e+06 | 97 | 97 ± 2 | – | – | 86 | 86 ± 19 | inactive | 80 to 85 | – | – | – | – | –
Cc1nc(CCCc2ccccc2)oc1N(CC#N)C(=O)C(F)(F)F [compound 5, N-(Cyanomethyl)-2,2,2-trifluoro-N-(4-methyl-2-(3-phenylpropyl)oxazol-5-yl)acetamide] | – | – | – | 77 | 77 ± 17 | – | – | 112 | 112 ± 6 | very low inhibitory activities | – | 108000 | ≤ 88 | – | – | –
Cc1nc(CCCc2ccccc2)oc1N(C)CC#N [compound 6, 2-(Methyl(4-methyl-2-(3-phenylpropyl)oxazol-5-yl)amino)acetonitrile] | – | – | – | 96 | 96 ± 3 | 94 | 94 ± 7 | 109 | 109 ± 6 | very low inhibitory activities | – | 12400 | – | – | – | –
CC(C)c1nc(CCCc2ccccc2)oc1N1CCC[C@H]1C#N [compound 7, 4-Phenylbutanoyl-(4-isopropyl-2-oxazol-5-yl)-2(S)-cyanopyrrolidine] | – | – | 156 | 82 | 82 ± 8 | 81 | 81 ± 5 | 82 | 82 ± 13 | – | 80 to 85 | – | ≤ 88 | 156 to 445 | < 88 | –
CC(C)Cc1nc(CCCc2ccccc2)oc1N1CCC[C@H]1C#N [compound 8, 4-Phenylbutanoyl-(4-isobutyl-2-oxazol-5-yl)-2(S)-cyanopyrrolidine] | – | – | 4580 | 81 | 81 ± 11 | 83 | 83 ± 7 | 80 | 80 ± 6 | – | 80 to 85 | – | ≤ 88 | – | < 88 | –
CC(C)(C)c1nc(CCCc2ccccc2)oc1N1CCC[C@H]1C#N [compound 9, (S)-1-(4-(tert-Butyl)-2-(3-phenylpropyl)oxazol-5-yl)pyrrolidine-2-carbonitrile] | – | – | – | 103 | 103 ± 3 | 86 | 86 ± 10 | 92 | 92 ± 6 | further reduced inhibitory activities | – | 415000 | – | – | < 88 | –
N#C[C@@H]1CCCN1c1oc(CCCc2ccccc2)nc1-c1ccccc1 [compound 10, 4-Phenylbutanoyl-(4-phenyl-2-oxazol-5-yl)-2(S)-cyanopyrrolidine] | – | – | – | 104 | 104 ± 6 | 77 | 77 ± 8 | 97 | 97 ± 10 | further reduced inhibitory activities | – | 17400 | – | – | 75 | –
CSCCc1nc(CCCc2ccccc2)oc1N1CCC[C@H]1C#N [compound 11, (S)-1-(4-(2-(Methylthio)ethyl)-2-(3-phenylpropyl)oxazol-5-yl)pyrrolidine-2-carbonitrile] | comparable effect as KYP-2047 | – | 445 | 92 | 92 ± 5 | 101 | 101 ± 8 | 90 | 90 ± 8 | – | – | – | – | 156 to 445 | – | –
Cc1nc(CCCCc2ccccc2)oc1N1CCC[C@H]1C#N [compound 16, (S)-1-(4-Methyl-2-(4-phenylbutyl)oxazol-5-yl)pyrrolidine-2-carbonitrile] | – | – | – | 89 | 89 ± 6 | – | – | 108 | 108 ± 2 | – | – | – | – | – | – | –
N#Cc1nc(CCCc2ccccc2)oc1N [compound 26, 5-Amino-2-(3-phenylpropyl)oxazole-4-carbonitrile] | – | – | > 1e+06 | 96 | 96 ± 4 | – | – | 73 | 73 ± 15 | – | ≤ 75 | – | – | – | – | –
N#Cc1nc(CCCc2ccccc2)oc1N1CCCC1 [compound 27, 2-(3-Phenylpropyl)-5-(pyrrolidin-1-yl)oxazole-4-carbonitrile] | comparable effect as KYP-2047 | – | – | 96 | 96 ± 5 | – | – | 88 | 88 ± 6 | very weak inhibitors | – | 75400 | – | – | – | –
Cc1oc(CCCc2ccccc2)nc1C(=O)N1CCCC1 [compound 31, (5-Methyl-2-(3-phenylpropyl)oxazol-4-yl)(pyrrolidin-1-yl)methanone] | – | – | – | 97 | 97 ± 4 | – | – | 117 | 117 ± 11 | very low inhibitory activities | – | 138000 | – | – | – | –
Cc1oc(CCCc2ccccc2)nc1C(=O)N1CCC[C@H]1C(N)=O [compound 32, (S)-1-(5-Methyl-2-(3-phenylpropyl)oxazole-4-carbonyl)pyrrolidine-2-carboxamide] | – | – | > 1e+06 | 98 | 98 ± 3 | – | – | – | – | very low inhibitory activities | – | – | – | – | – | –
CC(=O)N[C@@H](CSC(=O)[C@]1([C@@H](O)C(C)C)NC(=O)[C@H](C)[C@@H]1O)C(=O)O [lactacystin, reference compound] | significantly increased αSyn dimerization | – | – | – | – | – | – | – | – | – | – | – | – | – | – | –
CO[C@H]1C[C@@H]2CC[C@@H](C)[C@@](O)(O2)C(=O)C(=O)N2CCCC[C@H]2C(=O)O[C@H]([C@H](C)C[C@@H]2CC[C@@H](O)[C@H](OC)C2)CC(=O)[C@H](C)/C=C(\C)[C@@H](O)[C@@H](OC)C(=O)[C@H](C)C[C@H](C)/C=C/C=C/C=C/1C [rapamycin, reference compound] | – | – | – | – | – | – | – | – | – | – | – | – | – | – | – | 65
